Data published in article PMC12144862, “Structural Basis of Sequential Enantioselective Epoxidation by a Flavin-Dependent Monooxygenase in Lasalocid A Biosynthesis” (Angewandte Chemie (International ed. in English), 2025).

Biological target: T1, Lsd18 (Streptomyces lasalocidi, UniProt B5M9L6)
T1 construct: recombinant Lsd18 with FAD; two molecules in the asymmetric unit
Assay: LC-MS epoxidation assay
Type: biochemical
Details: forms mono- and bisepoxide

T1 sequence (B5M9L6 whole entry): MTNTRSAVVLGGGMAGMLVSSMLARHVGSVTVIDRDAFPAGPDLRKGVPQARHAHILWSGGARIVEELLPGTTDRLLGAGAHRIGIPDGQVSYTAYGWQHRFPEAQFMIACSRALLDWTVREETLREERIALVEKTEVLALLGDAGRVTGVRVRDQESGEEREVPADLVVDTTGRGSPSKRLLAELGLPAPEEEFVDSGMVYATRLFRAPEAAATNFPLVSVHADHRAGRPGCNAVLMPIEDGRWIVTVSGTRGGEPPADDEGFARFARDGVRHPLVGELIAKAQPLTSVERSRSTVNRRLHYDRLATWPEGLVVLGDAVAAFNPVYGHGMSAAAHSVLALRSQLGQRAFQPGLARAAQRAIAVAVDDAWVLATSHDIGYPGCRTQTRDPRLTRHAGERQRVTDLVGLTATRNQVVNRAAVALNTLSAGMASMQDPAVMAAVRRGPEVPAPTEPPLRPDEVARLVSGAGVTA

`CC(=O)OC/C=C(\C)CC/C=C(\C)CCC=C(C)C` [farnesyl acetate] was tested, and the LC-MS epoxidation assay was “Lsd18 transforms farnesyl acetate, a natural sesquiterpene, into a bisepoxide”.
